One may read the Emax as the greatest response seen or fitted, relative to the assay's reference. Broadly, the half-life is the time needed for the level to fall by half in the phase considered. A higher half-life goes with slow loss. Usually Papp B→A stands for how fast a substance crosses the layer from the basolateral side. As usually defined, the Papp A→B is the apparent permeability from the apical to the basolateral side of a cell layer.

For data set [1], the target named is T1, Beta-2 adrenergic receptor (Homo sapiens, UniProt P07550). As to the kind of experiment: Agonist activity at human beta2 adrenergic receptor expressed in HEK293 cells assessed as increase in cAMP accumulation after 60 mins by HTRF assay. Type of data set: functional, cell-based. (Changes in cAMP serve as a functional read-out for many G protein-coupled receptors.)
Target sequence in this assay (P07550 whole entry): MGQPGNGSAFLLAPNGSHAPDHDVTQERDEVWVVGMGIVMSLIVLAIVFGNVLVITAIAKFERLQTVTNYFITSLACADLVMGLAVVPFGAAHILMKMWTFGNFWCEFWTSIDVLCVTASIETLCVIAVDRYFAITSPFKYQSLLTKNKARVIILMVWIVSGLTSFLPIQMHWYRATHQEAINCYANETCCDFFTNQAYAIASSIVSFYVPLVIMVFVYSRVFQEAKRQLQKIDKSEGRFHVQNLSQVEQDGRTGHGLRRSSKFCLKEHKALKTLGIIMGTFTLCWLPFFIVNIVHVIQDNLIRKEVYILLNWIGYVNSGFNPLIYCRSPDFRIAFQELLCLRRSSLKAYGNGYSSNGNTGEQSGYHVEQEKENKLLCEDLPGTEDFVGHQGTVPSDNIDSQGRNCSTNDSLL

The species entered for data set [2] is Homo sapiens. As to the kind of experiment: Selectivity ratio of pEC50 for human beta2 adrenergic receptor expressed in HEK293 cells to pEC50 for human beta1 adrenergic receptor expressed in HEK293 cells. Type of data set: cell-based.
The target of data set [3] is Beta-1 adrenergic receptor (Homo sapiens, UniProt P08588). As to the kind of experiment: Agonist activity at human beta1 adrenergic receptor expressed in HEK293 cells assessed as increase in cAMP accumulation after 60 mins by HTRF assay. Type of data set: functional, cell-based.
Chain of Beta-1 adrenergic receptor (P08588 whole entry): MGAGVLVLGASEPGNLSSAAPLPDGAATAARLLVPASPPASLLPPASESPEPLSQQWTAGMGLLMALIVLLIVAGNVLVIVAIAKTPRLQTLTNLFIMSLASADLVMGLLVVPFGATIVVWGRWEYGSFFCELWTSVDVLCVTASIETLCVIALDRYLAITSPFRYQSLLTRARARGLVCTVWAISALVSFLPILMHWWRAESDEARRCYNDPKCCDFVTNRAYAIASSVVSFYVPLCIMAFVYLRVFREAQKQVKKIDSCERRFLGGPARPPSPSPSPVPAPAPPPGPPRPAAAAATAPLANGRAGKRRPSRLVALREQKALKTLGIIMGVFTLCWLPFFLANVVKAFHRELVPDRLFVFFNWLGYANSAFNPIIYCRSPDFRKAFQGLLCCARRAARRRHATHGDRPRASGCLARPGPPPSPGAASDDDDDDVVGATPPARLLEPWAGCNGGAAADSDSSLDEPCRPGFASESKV
The target in data set [4] is T1, Beta-2 adrenergic receptor. The data set is described as follows: Intrinsic activity at human beta2 adrenergic receptor in HEK293 cells assessed as increase in cAMP accumulation after 60 mins by HTRF assay relative to isoprenaline. Type of data set: functional, cell-based.
Target sequence in this assay (P07550 whole entry, looked up): as the sequence (P07550 whole entry) above
Data set [5] in a line: Intrinsic clearance in human liver microsomes at 10 uM after 10 mins in presence of NADPH by LC/MS/MS analysis. Type of data set: ADME, microsome. To be noted: read-out: CLH. (In general: Liver microsomes are a subcellular fraction often used to study metabolism.)
In data set [6] the test system is Smooth muscle of trachea. As to the kind of experiment: Reduction in histamine-induced muscle contractions in Dunkin-Hartley guinea pig tracheal smooth muscle ring by measuring muscle tone relative to control. Type of data set: functional. Particulars: Cavia porcellus.
Data set [7] in a line: Half life in human liver microsomes at 10 uM by LC/MS/MS analysis. Type of data set: ADME, microsome.
Data set [8] has as its target Beta-3 adrenergic receptor (Homo sapiens, UniProt P13945). The data set is described as follows: Agonist activity at human beta3 adrenergic receptor expressed in HEK293 cells assessed as increase in cAMP accumulation after 60 mins by HTRF assay. Type of data set: functional, cell-based.
Data set [9] concerns Smooth muscle of trachea. As to the kind of experiment: Intrinsic activity at Dunkin-Hartley guinea pig tracheal smooth muscle ring assessed as reduction in histamine-induced muscle contractions by measuring muscle tone relative to isoprenaline. Type of data set: functional, Cavia porcellus.
Data set [10] concerns Smooth muscle of trachea. As to the kind of experiment: Reduction in histamine-induced muscle contractions in Dunkin-Hartley guinea pig tracheal smooth muscle ring by measuring muscle tone. Type of data set: functional, Cavia porcellus.
A short description of data set [11]: Apparent permeability from basolateral to apical side in human Caco2 cells at 2 uM after 2 hrs by LC/MS/MS analysis. Type of data set: ADME, cell-based. To be noted: Caco-2. On the technique in general: Caco-2 monolayers are a common model of the intestinal barrier.
Data set [12] can be described thus: Apparent permeability from apical to basolateral side in human Caco2 cells at 2 uM after 2 hrs by LC/MS/MS analysis. Type of data set: ADME, cell-based. Particulars: Caco-2.

Chain of Beta-3 adrenergic receptor (P13945 whole entry): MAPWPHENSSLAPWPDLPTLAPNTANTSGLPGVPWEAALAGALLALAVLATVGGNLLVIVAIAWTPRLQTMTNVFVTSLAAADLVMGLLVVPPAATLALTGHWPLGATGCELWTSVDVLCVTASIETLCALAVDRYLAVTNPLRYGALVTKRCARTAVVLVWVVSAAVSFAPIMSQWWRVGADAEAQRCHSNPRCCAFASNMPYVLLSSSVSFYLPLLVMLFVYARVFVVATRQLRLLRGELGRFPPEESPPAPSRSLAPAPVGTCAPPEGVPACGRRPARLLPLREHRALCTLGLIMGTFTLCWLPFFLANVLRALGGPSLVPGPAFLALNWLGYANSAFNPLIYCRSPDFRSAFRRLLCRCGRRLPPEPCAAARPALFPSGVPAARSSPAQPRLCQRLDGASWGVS

Regarding `O=C(Nc1ccc(CCNC(CO)c2ccc(O)c3[nH]c(=O)ccc23)cc1)c1ccccc1` (stereo not drawn), in data set [1] (read-out: pEC50 (converted)), the EC50 was 50.1 nM.

For `O=c1ccc2c(C(CO)NCCCCc3ccccc3)ccc(O)c2[nH]1` (stereo not drawn), the EC50 was 12.6 nM in data set [1] (read-out: pEC50 (converted)) and > 10 µM in [3]. Moreover, in [2], the Ratio was > 2.86.

`O=c1ccc2c([C@H](CO)NCCc3ccc(O)cc3)ccc(O)c2[nH]1`: in data set [1] (read-out: EC50), the EC50 came to 328 nM.

As to `Nc1ccc(CCNC(CO)c2ccc(O)c3[nH]c(=O)ccc23)cc1` (stereo not drawn), in data set [1] (read-out: pEC50 (converted)), the EC50 is 79.4 nM.

Regarding `CCCCC(=O)Nc1ccc(CCNC(CO)c2ccc(O)c3[nH]c(=O)ccc23)cc1` (stereo not drawn), in data set [1] (read-out: pEC50 (converted)), the EC50 was 316 nM.

Turning to `O=C(Cc1ccccc1)Nc1ccc(CCNC(CO)c2ccc(O)c3[nH]c(=O)ccc23)cc1` (stereo not drawn), in [1] (read-out: pEC50 (converted)), the EC50 is 3.98 nM.

As for `O=c1ccc2c(C(CO)NCCc3ccc(Cl)cc3)ccc(O)c2[nH]1` (stereo not drawn), the EC50 in data set [1] (read-out: pEC50 (converted)) is 39.8 nM; in [3], 1.58 µM. In addition, in [2], the Ratio was found to be 1.6.

For `O=c1ccc2c(C(CO)NCCCCOCCCCc3ccccc3)ccc(O)c2[nH]1` (stereo not drawn), the EC50 in data set [1] (read-out: pEC50 (converted)) was 251 nM.

As to `O=c1ccc2c(C(CO)NCC(c3ccccc3)c3ccccc3)ccc(O)c2[nH]1` (stereo not drawn), the EC50 in data set [1] (read-out: pEC50 (converted)) is 631 nM.

`COc1cccc(CCNC(CO)c2ccc(O)c3[nH]c(=O)ccc23)c1` (stereo not drawn): the EC50 in [1] (read-out: pEC50 (converted)) is 2 nM; in [3], 0.631 µM. Moreover, the Ratio in data set [2] was 2.62. Further, the Intrinsic activity in data set [4] turned out to be 52.5%.

For `CC(C)NCC(O)c1ccc(O)c(O)c1` (stereo not drawn) [ISOPROTERENOL], the CLint scaled at 10 µM in data set [5] worked out at 112 mL/min/kg. Moreover, in [6], the Emax was found to be 254%. In addition, the half-life at 10 µM in data set [7] was determined as 12.3 min.

With `O=c1ccc2c(C(CO)NCCc3ccc(O)cc3)ccc(O)c2[nH]1` (stereo not drawn), the EC50 is > 10 µM in [8], 3.16 nM in data set [1] (read-out: pEC50 (converted)) and > 10 µM in data set [3]. Besides, the Intrinsic activity in data set [9] was 98%; in data set [4], 46.3%. Further, the Emax in [6] turned out to be 250%. For the same molecule, in data set [2], the Ratio was > 3.5. For the same molecule, the pD2 in data set [10] is reported as 7.98.

As for `O=c1ccc2c(C(CO)NCCc3ccccc3Cl)ccc(O)c2[nH]1` (stereo not drawn), the results for the EC50 in data set [1] (read-out: pEC50 (converted)) and in data set [3] were 2 nM and > 10 µM, respectively. Moreover, in data set [2], the Ratio is > 3.66.

On to `O=c1ccc2c(C(CO)NCCc3ccccc3)ccc(O)c2[nH]1` (stereo not drawn), for which the EC50 in data set [8] was > 10 µM; in [1] (read-out: pEC50 (converted)), 1.58 nM; in [3], 0.832 µM. Also, the Intrinsic activity in [9] was 100%; in data set [4], 57.4%. In addition, in [6], the Emax came out at 255%. Besides, in data set [2], the Ratio came to 2.72. This molecule also had a pD2 in data set [10] of 7.81.

As to `CC(C)(Cc1ccccc1)NC(CO)c1ccc(O)c2[nH]c(=O)ccc12` (stereo not drawn), the EC50 was 50.1 nM in [1] (read-out: pEC50 (converted)) and > 10 µM in data set [3]. For the same molecule, in data set [2], the Ratio is > 2.28.

As to `O=c1ccc2c(C(CO)NCCc3cccc(O)c3)ccc(O)c2[nH]1` (stereo not drawn), in data set [1] (read-out: pEC50 (converted)), the EC50 is 794 nM.

In the case of `COc1ccc(CCNC(CO)c2ccc(O)c3[nH]c(=O)ccc23)cc1` (stereo not drawn), the values for the EC50 in [1] (read-out: pEC50 (converted)) and in data set [3] were 20 nM and > 10 µM, respectively. Also, in [2], the Ratio is > 2.71.

In the case of `COc1ccccc1CCNC(CO)c1ccc(O)c2[nH]c(=O)ccc12` (stereo not drawn), the results for the EC50 in data set [8], in [1] (read-out: pEC50 (converted)) and in data set [3] were > 10 µM, 5.01 nM and > 10 µM, respectively. The values for the Intrinsic activity in data set [9] and in data set [4] were 44% and 48.6%, respectively. In [6], the maximal response (Emax) is 111%. The Ratio in data set [2] is > 3.3. The molecule also had a pD2 in [10] of 6.03.

With `CC(C)C(=O)Nc1ccc(CCNC(CO)c2ccc(O)c3[nH]c(=O)ccc23)cc1` (stereo not drawn), the EC50 in data set [1] (read-out: pEC50 (converted)) was 50.1 nM.

With `O=c1ccc2c([C@@H](CO)NCCc3ccc(O)cc3)ccc(O)c2[nH]1`, in data set [5], the CLint scaled at 10 µM was 11.5 mL/min/kg. Further, in [11], the Papp B→A at 2 h, 2 µM is 0.74 ×10⁻⁶ cm/s. Besides, the EC50 in data set [1] (read-out: EC50) amounted to 1.26 nM. This molecule displayed a half-life at 10 µM in [7] of 109 min. The Papp A→B at 2 h, 2 µM in data set [12] is 0.43 ×10⁻⁶ cm/s.

With `O=c1ccc2c(C(CO)NCCc3cccc(Cl)c3)ccc(O)c2[nH]1` (stereo not drawn), the EC50 was 2.51 nM in data set [1] (read-out: pEC50 (converted)) and 3.16 µM in data set [3]. In addition, the Ratio in data set [2] came to 3.05.

On to `O=c1ccc2c(C(CO)NCCCc3ccccc3)ccc(O)c2[nH]1` (stereo not drawn), for which the values for the EC50 in [8], in data set [1] (read-out: pEC50 (converted)) and in [3] were > 10 µM, 10 nM and 0.832 µM, respectively. In [2], the Ratio came to 1.89. Also, the Intrinsic activity in data set [4] turned out to be 55.8%.

Turning to `O=c1ccc2c(C(CO)NCCc3ccccc3O)ccc(O)c2[nH]1` (stereo not drawn), the EC50 in data set [1] (read-out: pEC50 (converted)) was 10 nM; in [3], > 10 µM. Moreover, the Ratio in data set [2] was > 3.03. Further, the Intrinsic activity in data set [4] is 54.2%.

Turning to `CC(C)CC(=O)Nc1ccc(CCNC(CO)c2ccc(O)c3[nH]c(=O)ccc23)cc1` (stereo not drawn), in data set [1] (read-out: pEC50 (converted)), the EC50 is 631 nM.

As for `O=c1ccc2c(C(CO)NCCc3c[nH]c4ccccc34)ccc(O)c2[nH]1` (stereo not drawn), in data set [1] (read-out: pEC50 (converted)), the EC50 was 316 nM.

Take `CCc1cc2c(cc1CC)CC(NC(CO)c1ccc(O)c3[nH]c(=O)ccc13)C2` (stereo not drawn): the EC50 in data set [1] (read-out: pEC50 (converted)) is 316 nM.

In the case of `O=c1ccc2c(C(CO)NCCCCCCOCCCCc3ccccc3)ccc(O)c2[nH]1` (stereo not drawn), the EC50 in [1] (read-out: pEC50 (converted)) is 5.01 nM; in [3], > 10 µM. In addition, the Ratio in [2] is > 3.31.

The values are drawn from ChEMBL document CHEMBL4270519, “Synthesis and biological evaluation of β2-adrenoceptor agonists bearing the 2-amino-2-phenylethanol scaffold” (Eur J Med Chem, 2018).
